# Source: PubChem BioAssay (NCI)
#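 Compound exposure: 48 hours, 5 concentrations, 96-well plates. TGI marks complete inhibition of growth.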
# Legend:
# Test in all cases: growth of human tumour cells (NCI), 48 h
# UACC-257 melanoma = system: UACC-257 melanoma
# SN12C renal = system: SN12C renal
# TK-10 renal = system: TK-10 renal
# MOLT-4 leukemia = system: MOLT-4 leukemia
# PC-3 prostate = system: PC-3 prostate
# EKVX NSCLC = system: EKVX NSCLC
# CAKI-1 renal = system: CAKI-1 renal
# ACHN renal = system: ACHN renal
# SF-268 CNS = system: SF-268 CNS
# MDA-MB-231 breast = system: MDA-MB-231 breast
# HCC-2998 colon = system: HCC-2998 colon
# MDA-MB-435 = system: MDA-MB-435
# HL-60(TB) leukemia = system: HL-60(TB) leukemia
# SK-MEL-2 melanoma = system: SK-MEL-2 melanoma
# OVCAR-8 ovarian = system: OVCAR-8 ovarian
# HOP-92 NSCLC = system: HOP-92 NSCLC
# HT29 colon = system: HT29 colon
# NCI/ADR-RES ovarian = system: NCI/ADR-RES ovarian
# U251 CNS = system: U251 CNS
# K-562 leukemia = system: K-562 leukemia
# SNB-19 CNS = system: SNB-19 CNS
# SR leukemia = system: SR leukemia
# M14 melanoma = system: M14 melanoma
# SF-295 CNS = system: SF-295 CNS
# SW-620 colon = system: SW-620 colon
# OVCAR-5 ovarian = system: OVCAR-5 ovarian
# SK-MEL-28 melanoma = system: SK-MEL-28 melanoma
# 786-0 renal = system: 786-0 renal
# MCF7 breast = system: MCF7 breast
# OVCAR-3 ovarian = system: OVCAR-3 ovarian
# HCT-15 colon = system: HCT-15 colon
# NCI-H522 lung = system: NCI-H522 lung
# CCRF-CEM leukemia = system: CCRF-CEM leukemia
# OVCAR-4 ovarian = system: OVCAR-4 ovarian
# LOX IMVI melanoma = system: LOX IMVI melanoma
# SNB-75 CNS = system: SNB-75 CNS
# A498 renal = system: A498 renal
# NCI-H460 lung = system: NCI-H460 lung
# RPMI-8226 leukemia = system: RPMI-8226 leukemia
# MALME-3M melanoma = system: MALME-3M melanoma
# UACC-62 melanoma = system: UACC-62 melanoma
# SK-OV-3 ovarian = system: SK-OV-3 ovarian
# HCT-116 colon = system: HCT-116 colon
# COLO 205 colon = system: COLO 205 colon
# UO-31 renal = system: UO-31 renal
# NCI-H23 lung = system: NCI-H23 lung
# T-47D breast = system: T-47D breast
# HOP-62 NSCLC = system: HOP-62 NSCLC
# MDA-N = system: MDA-N
# DU-145 prostate = system: DU-145 prostate
# IGROV1 ovarian = system: IGROV1 ovarian
# SF-539 CNS = system: SF-539 CNS
compound,measurement,setting,value
CC(=O)OCC1OC(O[C@@H]2C[C@H]3C(C)(C)[C@H](OC(C)=O)CC[C@]3(C)[C@H]3CC[C@]4(C)C(=CC[C@H]4[C@@H](C)C[C@@H](O)[C@H](O)C(C)(C)O)[C@@]32C)C(O)C(O)C1O (some centres not stated),TGI,UACC-257 melanoma,35.1 µM
same,TGI,SN12C renal,31.7 µM
same,TGI,TK-10 renal,32 µM
same,TGI,MOLT-4 leukemia,31.8 µM
same,TGI,PC-3 prostate,30.8 µM
same,TGI,EKVX NSCLC,40.2 µM
same,TGI,CAKI-1 renal,27.3 µM
same,TGI,ACHN renal,30.4 µM
same,TGI,SF-268 CNS,29.3 µM
same,TGI,MDA-MB-231 breast,31.2 µM
same,TGI,HCC-2998 colon,35.1 µM
same,TGI,MDA-MB-435,28 µM
same,TGI,HL-60(TB) leukemia,33.3 µM
same,TGI,SK-MEL-2 melanoma,31.1 µM
same,TGI,OVCAR-8 ovarian,33.4 µM
same,TGI,HOP-92 NSCLC,30.9 µM
same,TGI,HT29 colon,32.5 µM
same,TGI,NCI/ADR-RES ovarian,> 100 µM
same,TGI,U251 CNS,25.3 µM
same,TGI,K-562 leukemia,37.7 µM
same,TGI,SNB-19 CNS,29.3 µM
same,TGI,SR leukemia,31.8 µM
same,TGI,M14 melanoma,36.5 µM
same,TGI,SF-295 CNS,33 µM
same,TGI,SW-620 colon,32.8 µM
same,TGI,OVCAR-5 ovarian,27.1 µM
same,TGI,SK-MEL-28 melanoma,29.8 µM
same,TGI,786-0 renal,29.9 µM
same,TGI,MCF7 breast,33.2 µM
same,TGI,OVCAR-3 ovarian,28.7 µM
same,TGI,HCT-15 colon,31.4 µM
same,TGI,NCI-H522 lung,5.07 µM
same,TGI,CCRF-CEM leukemia,35.1 µM
same,TGI,OVCAR-4 ovarian,29.8 µM
same,TGI,LOX IMVI melanoma,30.2 µM
same,TGI,SNB-75 CNS,36.5 µM
same,TGI,A498 renal,34 µM
same,TGI,NCI-H460 lung,31.2 µM
same,TGI,RPMI-8226 leukemia,30.2 µM
same,TGI,MALME-3M melanoma,31.9 µM
same,TGI,UACC-62 melanoma,30.5 µM
same,TGI,SK-OV-3 ovarian,32.5 µM
same,TGI,HCT-116 colon,27.5 µM
same,TGI,COLO 205 colon,27.7 µM
same,TGI,UO-31 renal,31.9 µM
same,TGI,NCI-H23 lung,35.5 µM
same,TGI,T-47D breast,32 µM
same,TGI,HOP-62 NSCLC,29.3 µM
same,TGI,MDA-N,32.7 µM
same,TGI,DU-145 prostate,32.1 µM
same,TGI,IGROV1 ovarian,33.8 µM
same,TGI,SF-539 CNS,29.9 µM
